Measured values taken from patent US20250312352A1, “GLP-1R MODULATING COMPOUNDS” (Gilead Sciences, Inc., priority 2021, published 2025).

Biological target: T1, GLP-1R (Homo sapiens, UniProt P43220)
T1 construct: host or cells: CHO cells
Assay: GLP-1R activation cAMP assay (Assay 1 or Assay 2)
Format: cell-based
Conditions: cAMP increase in CHO cells stably expressing GLP-1R; compounds run on one of the two cAMP assays
Outline: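 CHO cells stably expressing human GLP-1R were incubated 1 h in HBSS/20 mM HEPES/0.1% BSA, then exposed to 10-point agonist dilutions for 30 min at 37 °C. cAMP increase was measured with an HTRF Gs dynamic kit; EC50 from sigmoidal fit of response versus log concentration.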

T1 sequence (P43220 24-463): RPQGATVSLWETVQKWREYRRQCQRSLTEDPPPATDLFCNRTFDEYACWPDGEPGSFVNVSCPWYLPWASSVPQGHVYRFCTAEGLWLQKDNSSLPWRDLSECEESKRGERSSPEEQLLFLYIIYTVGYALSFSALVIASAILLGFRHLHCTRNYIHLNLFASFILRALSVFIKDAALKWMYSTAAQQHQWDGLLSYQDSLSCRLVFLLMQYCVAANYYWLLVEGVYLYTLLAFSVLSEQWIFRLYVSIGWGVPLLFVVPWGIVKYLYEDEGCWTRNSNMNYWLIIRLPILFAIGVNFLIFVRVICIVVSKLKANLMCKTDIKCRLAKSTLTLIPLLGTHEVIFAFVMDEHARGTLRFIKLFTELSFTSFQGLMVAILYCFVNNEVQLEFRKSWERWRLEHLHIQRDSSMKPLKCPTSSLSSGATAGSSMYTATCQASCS

EC50 [nM]	SMILES
0.205	O=C(O)c1ccc2nc(Cc3cc(F)c(-c4cccc(OCc5ncc(C#CC6CCC6)s5)n4)cc3F)n(C[C@@H]3CCO3)c2c1 [Example 333, (S)-2-(4-(6-((5-(cyclobutylethynyl)thiazol-2-yl)methoxy)pyridin-2-yl)-2,5-difluorobenzyl)-1-(oxetan-2-ylmethyl)-1H-benzo[d]imidazole-6-carboxylic acid]
0.929	Cc1c(C#Cc2ccc(COc3cccc(-c4cc(F)c(Cc5nc6ccc(C(=O)O)cc6n5C[C@@H]5CCO5)cc4F)n3)c(F)c2)cnn1C [Example 364, (S)-2-(4-(6-((4-((1,5-dimethyl-1H-pyrazol-4-yl)ethynyl)-2-fluorobenzyl)oxy)pyridin-2-yl)-2,5-difluorobenzyl)-1-(oxetan-2-ylmethyl)-1H-benzo[d]imidazole-6-carboxylic acid]
0.27	Cc1nnc(COc2cccc(-c3cc(F)c(Cc4nc5ccc(C(=O)O)cc5n4[C@@H]4COCC4(C)C)c(F)c3F)n2)s1 (single isomer, unassigned) [Example 281A]
0.04	CNC(=O)c1cc(Cl)c(COc2cccc(-c3cc(F)c(Cc4nc5c(F)cc(C(=O)O)cc5n4C[C@@H]4CCO4)cc3F)n2)cn1 [Example 198, (S)-2-(4-(6-((4-chloro-6-(methylcarbamoyl)pyridin-3-yl)methoxy)pyridin-2-yl)-2,5-difluorobenzyl)-4-fluoro-1-(oxetan-2-ylmethyl)-1H-benzo[d]imidazole-6-carboxylic acid]
3.45	COc1nnc(COc2nc(-c3cc(Cl)c(Cc4nc5c(F)cc(C(=O)O)cc5n4C[C@@H]4CCO4)cc3C)ccc2F)s1 [Example 443, (S)-2-(2-chloro-4-(5-fluoro-6-((5-methoxy-1,3,4-thiadiazol-2-yl)methoxy)pyridin-2-yl)-5-methylbenzyl)-4-fluoro-1-(oxetan-2-ylmethyl)-1H-benzo[d]imidazole-6-carboxylic acid]
0.095	O=C(O)c1cc(F)c2nc(Cc3cc(F)c(-c4ccc(F)c(OCc5ncc(-c6cnn(C(F)F)c6)s5)c4)cc3F)n(C[C@@H]3CCO3)c2c1 [Example 387, (S)-2-((3′-((5-(1-(difluoromethyl)-1H-pyrazol-4-yl)thiazol-2-yl)methoxy)-2,4′,5-trifluoro-[1,1′-biphenyl]-4-yl)methyl)-4-fluoro-1-(oxetan-2-ylmethyl)-1H-benzo[d]imidazole-6-carboxylic acid]
0.305	Cc1ncc(C#Cc2ccc(COc3cccc(-c4cc(F)c(Cc5nc6ccc(C(=O)O)cc6n5C[C@@H]5CCO5)cc4F)n3)cc2)cn1 [Example 305, (S)-2-(2,5-difluoro-4-(6-((4-((2-methylpyrimidin-5-yl)ethynyl)benzyl)oxy)pyridin-2-yl)benzyl)-1-(oxetan-2-ylmethyl)-1H-benzo[d]imidazole-6-carboxylic acid]
0.087	COc1nnc(COc2cccc(-c3cc(Cl)c(Cc4nc5ccc(C(=O)O)cc5n4[C@@H]4COCC4(C)C)cc3F)n2)s1 [Example 434, (S)-2-(2-chloro-5-fluoro-4-(6-((5-methoxy-1,3,4-thiadiazol-2-yl)methoxy)pyridin-2-yl)benzyl)-1-(4,4-dimethyltetrahydrofuran-3-yl)-1H-benzo[d]imidazole-6-carboxylic acid]
0.028	CC(F)(F)c1cnc(COc2cccc(-c3cc(F)c(Cc4nc5c(F)cc(C(=O)O)cc5n4C[C@@H]4CCO4)cc3F)n2)s1 [Example 318, (S)-2-(4-(6-((5-(1,1-difluoroethyl)thiazol-2-yl)methoxy)pyridin-2-yl)-2,5-difluorobenzyl)-4-fluoro-1-(oxetan-2-ylmethyl)-1H-benzo[d]imidazole-6-carboxylic acid]
0.039	COc1nnc(COc2cccc(-c3cc(F)c(Cc4nc5ccc(C(=O)O)cc5n4[C@@H]4COCC4(C)C)cc3F)n2)s1 [Example 342, (S)-2-(2,5-difluoro-4-(6-((5-methoxy-1,3,4-thiadiazol-2-yl)methoxy)pyridin-2-yl)benzyl)-1-(4,4-dimethyltetrahydrofuran-3-yl)-1H-benzo[d]imidazole-6-carboxylic acid]

More lines, now with the values behind:

SMILES	EC50 [nM]
O=C(O)c1ccc2nc(Cc3cc(F)c(-c4cccc(OCc5ccc(C#Cc6cncs6)cc5F)n4)cc3F)n(C[C@@H]3CCO3)c2c1 [Example 137, (S)-2-(2,5-difluoro-4-(6-((2-fluoro-4-(thiazol-5-ylethynyl)benzyl)oxy)pyridin-2-yl)benzyl)-1-(oxetan-2-ylmethyl)-1H-benzo[d]imidazole-6-carboxylic acid]	0.24
Cn1ccc(C#Cc2ccc(COc3cccc(-c4cc(F)c(Cc5nc6ccc(C(=O)O)cc6n5C[C@@H]5CCO5)cc4F)n3)c(F)c2)n1 [Example 134, (S)-2-(2,5-difluoro-4-(6-((2-fluoro-4-((1-methyl-1H-pyrazol-3-yl)ethynyl)benzyl)oxy)pyridin-2-yl)benzyl)-1-(oxetan-2-ylmethyl)-1H-benzo[d]imidazole-6-carboxylic acid]	0.6
COCCn1c(Cc2cc(F)c(-c3cccc(OCc4cn(-c5ccccc5)cn4)n3)cc2F)nc2ccc(C(=O)O)cc21 [Example 122, 2-(2,5-difluoro-4-(6-((1-phenyl-1H-imidazol-4-yl)methoxy)pyridin-2-yl)benzyl)-1-(2-methoxyethyl)-1H-benzo[d]imidazole-6-carboxylic acid]	695
O=C(O)c1cc(F)c2nc(Cc3ccc(-c4cccc(OCc5cc6n(n5)CCC6)n4)c(F)c3)n(C[C@@H]3CCO3)c2c1 [Example 69, (S)-2-(4-(6-((5,6-dihydro-4H-pyrrolo[1,2-b]pyrazol-2-yl)methoxy)pyridin-2-yl)-3-fluorobenzyl)-4-fluoro-1-(oxetan-2-ylmethyl)-1H-benzo[d]imidazole-6-carboxylic acid]	2.59
CC1(C#Cc2ccc(COc3cccc(-c4cc(F)c(Cc5nc6ccc(C(=O)O)cc6n5C[C@@H]5CCO5)cc4F)n3)s2)COC1 [Example 113, (S)-2-(2,5-difluoro-4-(6-((5-((3-methyloxetan-3-yl)ethynyl)thiophen-2-yl)methoxy)pyridin-2-yl)benzyl)-1-(oxetan-2-ylmethyl)-1H-benzo[d]imidazole-6-carboxylic acid]	0.16
O=C(O)c1ccc2nc(Cc3cc(F)c(-c4cccc(OCc5ncc(Cl)s5)n4)cc3F)n(C[C@@H]3CCO3)c2c1 [Example 47, (S)-2-(4-(6-((5-chlorothiazol-2-yl)methoxy)pyridin-2-yl)-2,5-difluorobenzyl)-1-(oxetan-2-ylmethyl)-1H-benzo[d]imidazole-6-carboxylic acid]	0.09
Cn1cc(C#Cc2ccc(COc3cccc(-c4cc(F)c(Cc5nc6ccc(C(=O)O)cc6n5C[C@@H]5CCO5)cc4F)n3)s2)cn1 [Example 112, (S)-2-(2,5-difluoro-4-(6-((5-((1-methyl-1H-pyrazol-4-yl)ethynyl)thiophen-2-yl)methoxy)pyridin-2-yl)benzyl)-1-(oxetan-2-ylmethyl)-1H-benzo[d]imidazole-6-carboxylic acid]	0.13
CNC(=O)c1cc(Cl)c(COc2cccc(-c3cc(F)c(Cc4nc5ccc(C(=O)O)cc5n4C[C@@H]4CCO4)cc3F)n2)cn1 [Example 46, (S)-2-(4-(6-((4-chloro-6-(methylcarbamoyl)pyridin-3-yl)methoxy)pyridin-2-yl)-2,5-difluorobenzyl)-1-(oxetan-2-ylmethyl)-1H-benzo[d]imidazole-6-carboxylic acid]	0.14
